We go through one compound from article PMC3062964, “Biomolecular Interaction Study of Cyclolinopeptide A with Human Serum Albumin” (Journal of Biomedicine and Biotechnology, 2011).

Peptide text beside a SMILES is read from it.

In assay [1] the target is T1, Human Serum Albumin (HSA, fatty acid free) (Homo sapiens, UniProt P02768).
T1 construct: purchased Sigma (Oakville, ON)
Briefly: SPR binding of CLP-A to immobilized HSA. The conditions noted are these: for Kd: Kd = 1/Ka, SPR; for Kd / Ka: 1X PBS pH 7.4, 5% DMSO; for Ka: SPR (BiacoreX, CM5 chip, HSA 9–11 kRU), CLP-A 50–200 μM injected in triplicate, dose-response fitted with rectangular hyperbola, global Rmax 2000, standard error of curve-fitting in brackets. The method, then: Running buffer for all experiments was prepared by diluting a 10X phosphate-buffered saline (PBS) stock solution (100 mM phosphate buffer, 20.7 mM KCl, 1370 mM NaCl, pH 6.7) to a 1X PBS, pH 7.4 solution containing 5% DMSO. Running buffers were filtered and degassed daily before use.
Analyte solutions containing the CLP-A peptides were prepared by diluting the stock solution (10 mM in DMSO) into 1.05X PBS, giving a final 1X PBS, pH 7.4 buffer containing 5% DMSO (same as the running buffer).
All SPR measurements were performed at different temperatures using a BiacoreX instrument equipped with a research-grade CM5 carboxylated-dextran sensor chip (Biacore). The fluidic unit of the instrument was cleaned prior to experiments using the DESORB method (injections of 0.5% sodium dodecyl sulphate, followed by 50 mM glycine, pH 9.5) equipped in the instrument's software. On some occasions a “SUPER-CLEAN” method was also used (injections of 1% CH3COOH, 1 M NaHCO3, 10 mM HCl, and 6 M GndHCl).
The carboxylated-dextran sensor chips were preconditioned prior to HSA immobilization by priming the instrument 3 times with HBS-EP buffer, followed by 3 successive 1 min injections of 50 mM NaOH at 50 μL min^−1. HSA was covalently immobilized onto a CM5 sensor surface at 25°C using standard amine-coupling chemistry. Flow cell 1 (Fc1) and flow cell 2 (Fc2) were activated by a 7 min injection of a 1 : 1 mixture of 0.1 M NHS and 0.4 M EDC using a flow rate of 5 μL min^−1. Immediately after activation, HSA (30 μg mL^−1, 10 mM acetate buffer pH 5.3) was immobilized onto Fc2. A 7 min injection of 1 M EA (pH 8.5) was conducted over Fc1 and Fc2 to deactivate the surfaces. The final HSA concentration immobilized onto the chip was 9–11 kRU.
CLP-A solutions (50–200 μM) were injected in triplicate and flowed over reference and HSA surfaces for 2 min at a flow rate of […], followed by a dissociation phase of 3 min for all experimental temperatures. At the end of the CLP-A injection, the flowing solution was switched to the running buffer until the response returned to the original baseline. Instances where the baseline was not readily achieved, a short pulse of 50% (v/v) DMSO solution was injected at high flow rate to remove any remaining CLP-A. Data were collected at a rate of 5 Hz and processed using the BiaEvaluation V4.2 software. The equilibrium constant, Ka, was determined using the rectangular hyperbola equation [20]:
(1) Req=Rmax Ka[CLP-A]/1+Ka[CLP-A], where Req, Rmax, [CLP-A] are the measured response values, the binding site saturation value, and the concentration of CLP-A, respectively. Curve-fitting was done with Microcal Origin V7.1 using a global Rmax value of 2000.
CLP-A concentration was limited to below 200 μM due to the solubility of the peptide in the buffer. The affinity of interaction was estimated by first assuming that HSA-binding sites were equally available and second that only high affinity sites were occupied in the working concentration range [24]. The Kd and Ka values indicate that affinity increases as the temperature increased. […] To further elucidate the HSA/CLP-A interaction, thermodynamic parameters are extracted using the van't Hoff equation (2) ln Kd=ΔH/R(1/T)−ΔS/R, where R = 8.314 J mol^−1 K^−1. This yields ΔH and ΔS for the interaction to be 204 kJ mol^−1 and 746 J mol^−1 K^−1 respectively. The binding is overall endothermic. This indicates an association with the hydrophobic pockets of HSA and the opening of binding sites. Moreover, DMSO has been used to assist the solubility. Therefore, the entire solvation complex consisting of CLP-A, DMSO and H2O requires energy to expose the binding site. This energy plus the binding energy for interaction in the hydrophobic pockets of HSA result in an overall endothermic process. The large entropy of the endothermic process clearly indicate that binding is entropy-driven. This is due to contribution from breaking of the solvation complex and hydrophobic binding.

For a further assay, the target named is T2, HSA (Homo sapiens, UniProt P02768).
T2 construct: purchased Sigma (Oakville, ON)
Briefly: Far-UV circular dichroism, secondary structure of HSA upon CLP-A binding. The conditions noted are these: HSA 18 μM + CLP-A 50 μM, 10 mM PBS, 5% DMSO, pH 7.4, room temperature, far-UV CD, CDNN V2.1, 210–260 nm. As for the experimental part: CD measurements of HSA (18 μM), HSA/CLP-A (18 μM, 50 μM) in 10 mM PBS, 5% DMSO, pH = 7.4 buffer were made with a Pistar-180 CD spectrometer (Applied Photophysics Ltd., Leatherhead, UK) at room temperature. The far-UV region was scanned from 260–180 nm in 0.5 nm steps at a scan rate of 10 nm min^−1 and a bandwidth of 6 nm using a 0.010 cm optical pathlength quartz cuvette. The secondary structure was estimated using the neural network deconvolution software CDNN V2.1 [22]. The near-UV region was scanned from 350–250 nm in 0.5 nm steps at a scan rate of 10 nm min^−1, and a bandwidth of 2 nm using a 10 mm optical pathlength cuvette.
In order to assess if any conformational changes were present upon CLP-A complexation with HSA, we compared the far-UV and near-UV CD spectra of HSA and HSA/CLP-A in the running buffer used in the Biacore experiments shown in Figure 5. CD spectra taken in the far-UV spectral region provide insight to the secondary structure of a protein. […] This region of the spectra corresponds to signals from the phenylalanine, tyrosine, and tryptophan residues on the protein and it provides insight to changes in the tertiary structure of the protein.

T1 sequence (P02768 25-609): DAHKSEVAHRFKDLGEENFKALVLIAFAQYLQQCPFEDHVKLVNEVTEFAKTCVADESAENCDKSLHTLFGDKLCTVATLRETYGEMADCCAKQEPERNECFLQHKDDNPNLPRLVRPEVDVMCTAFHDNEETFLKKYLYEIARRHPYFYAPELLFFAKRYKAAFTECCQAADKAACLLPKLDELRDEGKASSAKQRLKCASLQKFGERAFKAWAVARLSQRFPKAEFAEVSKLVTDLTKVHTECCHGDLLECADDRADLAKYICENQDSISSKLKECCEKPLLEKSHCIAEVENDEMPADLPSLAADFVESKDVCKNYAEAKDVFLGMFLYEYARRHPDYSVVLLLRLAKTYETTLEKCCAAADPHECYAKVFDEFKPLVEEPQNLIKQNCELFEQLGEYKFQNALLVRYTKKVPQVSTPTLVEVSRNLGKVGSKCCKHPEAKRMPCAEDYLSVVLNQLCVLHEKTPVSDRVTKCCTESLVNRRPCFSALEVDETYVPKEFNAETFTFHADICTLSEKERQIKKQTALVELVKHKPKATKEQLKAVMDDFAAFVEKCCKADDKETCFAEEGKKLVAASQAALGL
T2 sequence (P02768 25-609): as above

Turning to `CC[C@H](C)[C@@H]1NC(=O)[C@H](CC(C)C)NC(=O)[C@H](Cc2ccccc2)NC(=O)[C@H](Cc2ccccc2)NC(=O)[C@@H]2CCCN2C(=O)[C@@H]2CCCN2C(=O)[C@H](C(C)C)NC(=O)[C@H](CC(C)C)NC(=O)[C@H]([C@@H](C)CC)NC1=O` [CLP-A, Cyclolinopeptide A] (cyclo(FFLIILVPP)), the Kd is 1320 µM in assay [1] (20°C), 593 µM in assay [1] (25°C), 142 µM in assay [1] (30°C) and 20 µM in assay [1] (37°C). Besides, the Ka is 757 (33) M^−1 in assay [1] (20°C), 1687 (20) M^−1 in assay [1] (25°C), 7056 (36) M^−1 in assay [1] (30°C) and 50032 (1792) M^−1 in assay [1] (37°C). For the same compound, the “recognition kinetics of binding to the HSA-binding site” value in assay [1] (SPR sensorgrams, 50–200 μM, 20–37°C, gradual increase of response to steady state during injection) is listed as “very slow recognition kinetics”. In addition, on HSA (HSA alone 6), the “Secondary structure of HSA/CLP-A: Parallel” value turned out to be 6%. Further, the “Secondary structure of HSA/CLP-A: Antiparallel” value at HSA (HSA alone 8) came out at 9%. Further, the “Secondary structure of HSA/CLP-A: Beta-Turn” value at HSA (HSA alone 15) is given as 16%. In addition, on HSA (HSA alone 27), the “Secondary structure of HSA/CLP-A: Rndm. Coil” value is given as 29%. Further, at HSA (HSA alone 46), the “Secondary structure of HSA/CLP-A: Helix” value came to 41%.
